From the NIST ThermoML archive (doi:10.1021/je060271a)
± gives the expanded uncertainty stated by the source.

Details: 323.14 K, Liquid, Vibrating tube method

Work on CCCC(=O)OCC(COC(=O)CCC)(COC(=O)CCC)COC(=O)CCC [pentaerythritol tetrabutyrate] yielded a mass density (17664 kPa) of 1037.3 ± 1.2 kg/m3, a mass density (17706 kPa) of 1037.2 ± 1.3 kg/m3 and a mass density (17742 kPa) of 1037.4 ± 1.2 kg/m3. It also gave a mass density (17779 kPa) of 1037.3 ± 1.2 kg/m3, a mass density (17823 kPa) of 1037.3 ± 1.2 kg/m3 and a mass density (17860 kPa) of 1037.3 ± 1.2 kg/m3. It also gave a mass density (17896 kPa) of 1037.3 ± 1.2 kg/m3, a mass density (17933 kPa) of 1037.5 ± 1.2 kg/m3 and a mass density (17977 kPa) of 1037.4 ± 1.2 kg/m3. The mass density (18014 kPa) was 1037.5 ± 1.2 kg/m3, the mass density (18060 kPa) was 1037.4 ± 1.2 kg/m3 and the mass density (18099 kPa) was 1037.5 ± 1.2 kg/m3. It also gave a mass density (18137 kPa) of 1037.5 ± 1.2 kg/m3, a mass density (18184 kPa) of 1037.6 ± 1.2 kg/m3 and a mass density (18224 kPa) of 1037.5 ± 1.2 kg/m3. The mass density (18264 kPa) was 1037.7 ± 1.2 kg/m3, the mass density (18304 kPa) was 1037.6 ± 1.2 kg/m3 and the mass density (18346 kPa) was 1037.8 ± 1.2 kg/m3. For the same compound, the mass density (18376 kPa) was 1037.8 ± 1.2 kg/m3, the mass density (18470 kPa) was 1037.7 ± 1.2 kg/m3 and the mass density (18504 kPa) was 1037.6 ± 1.2 kg/m3. For the same compound, the mass density (18534 kPa) was 1037.7 ± 1.2 kg/m3, the mass density (18564 kPa) was 1037.8 ± 1.2 kg/m3 and the mass density (18600 kPa) was 1037.9 ± 1.2 kg/m3. For the same compound, the mass density (18629 kPa) was 1037.8 ± 1.3 kg/m3, the mass density (18660 kPa) was 1037.9 ± 1.2 kg/m3 and the mass density (18695 kPa) was 1037.8 ± 1.2 kg/m3. For the same compound, the mass density (18793 kPa) was 1037.9 ± 1.2 kg/m3, the mass density (18818 kPa) was 1038 ± 1.2 kg/m3 and the mass density (18855 kPa) was 1038 ± 1.2 kg/m3. The mass density (18891 kPa) was 1038 ± 1.3 kg/m3, the mass density (18922 kPa) was 1037.9 ± 1.2 kg/m3 and the mass density (18954 kPa) was 1038 ± 1.2 kg/m3. It also gave a mass density (18986 kPa) of 1038.2 ± 1.3 kg/m3, a mass density (19023 kPa) of 1038 ± 1.3 kg/m3 and a mass density (19055 kPa) of 1038 ± 1.3 kg/m3. The mass density (19093 kPa) was 1038.2 ± 1.2 kg/m3, the mass density (19125 kPa) was 1038.1 ± 1.3 kg/m3 and the mass density (19157 kPa) was 1038.1 ± 1.3 kg/m3. The mass density (19219 kPa) was 1038.2 ± 1.3 kg/m3, the mass density (19363 kPa) was 1038.3 ± 1.3 kg/m3 and the mass density (19716 kPa) was 1038.6 ± 1.3 kg/m3. The mass density (19756 kPa) was 1038.7 ± 1.3 kg/m3, the mass density (19790 kPa) was 1038.6 ± 1.3 kg/m3 and the mass density (19824 kPa) was 1038.7 ± 1.3 kg/m3. The mass density (19866 kPa) was 1038.6 ± 1.3 kg/m3, the mass density (19901 kPa) was 1038.7 ± 1.3 kg/m3 and the mass density (19935 kPa) was 1038.8 ± 1.3 kg/m3. For the same compound, the mass density (20012 kPa) was 1038.8 ± 1.3 kg/m3, the mass density (20274 kPa) was 1038.9 ± 1.3 kg/m3 and the mass density (20318 kPa) was 1038.9 ± 1.3 kg/m3. For the same compound, the mass density (20356 kPa) was 1038.9 ± 1.3 kg/m3, the mass density (20392 kPa) was 1038.9 ± 1.3 kg/m3 and the mass density (20429 kPa) was 1039.1 ± 1.3 kg/m3. For the same compound, the mass density (20472 kPa) was 1039.1 ± 1.3 kg/m3, the mass density (20510 kPa) was 1039 ± 1.3 kg/m3 and the mass density (20629 kPa) was 1039.2 ± 1.3 kg/m3. It also gave a mass density (20667 kPa) of 1039.1 ± 1.3 kg/m3, a mass density (20706 kPa) of 1039.2 ± 1.3 kg/m3 and a mass density (20751 kPa) of 1039.2 ± 1.3 kg/m3. It also gave a mass density (20789 kPa) of 1039.2 ± 1.3 kg/m3, a mass density (20828 kPa) of 1039.3 ± 1.3 kg/m3 and a mass density (20869 kPa) of 1039.3 ± 1.3 kg/m3. It also gave a mass density (20908 kPa) of 1039.4 ± 1.3 kg/m3, a mass density (20954 kPa) of 1039.3 ± 1.3 kg/m3 and a mass density (20992 kPa) of 1039.4 ± 1.3 kg/m3. The mass density (21039 kPa) was 1039.3 ± 1.3 kg/m3, the mass density (21079 kPa) was 1039.4 ± 1.3 kg/m3 and the mass density (21117 kPa) was 1039.6 ± 1.3 kg/m3. For the same compound, the mass density (21156 kPa) was 1039.4 ± 1.3 kg/m3, the mass density (21204 kPa) was 1039.5 ± 1.3 kg/m3 and the mass density (21243 kPa) was 1039.5 ± 1.3 kg/m3. The mass density (21283 kPa) was 1039.5 ± 1.3 kg/m3, the mass density (21333 kPa) was 1039.5 ± 1.3 kg/m3 and the mass density (21374 kPa) was 1039.6 ± 1.3 kg/m3. The mass density (21416 kPa) was 1039.6 ± 1.3 kg/m3, the mass density (21465 kPa) was 1039.7 ± 1.3 kg/m3 and the mass density (21508 kPa) was 1039.7 ± 1.3 kg/m3. The mass density (21593 kPa) was 1039.7 ± 1.3 kg/m3, the mass density (22639 kPa) was 1040.4 ± 1.3 kg/m3 and the mass density (22677 kPa) was 1040.4 ± 1.3 kg/m3. For the same compound, the mass density (22723 kPa) was 1040.4 ± 1.3 kg/m3, the mass density (22761 kPa) was 1040.5 ± 1.3 kg/m3 and the mass density (22807 kPa) was 1040.5 ± 1.3 kg/m3. For the same compound, the mass density (22845 kPa) was 1040.5 ± 1.3 kg/m3, the mass density (22884 kPa) was 1040.5 ± 1.3 kg/m3 and the mass density (22932 kPa) was 1040.5 ± 1.3 kg/m3. For the same compound, the mass density (22972 kPa) was 1040.6 ± 1.3 kg/m3, the mass density (23010 kPa) was 1040.7 ± 1.3 kg/m3 and the mass density (23051 kPa) was 1040.6 ± 1.3 kg/m3. The mass density (23098 kPa) was 1040.7 ± 1.3 kg/m3, the mass density (23137 kPa) was 1040.7 ± 1.3 kg/m3 and the mass density (23185 kPa) was 1040.7 ± 1.3 kg/m3. For the same compound, the mass density (23224 kPa) was 1040.8 ± 1.3 kg/m3, the mass density (23265 kPa) was 1040.8 ± 1.3 kg/m3 and the mass density (23314 kPa) was 1040.8 ± 1.3 kg/m3. The mass density (23354 kPa) was 1040.9 ± 1.3 kg/m3, the mass density (23396 kPa) was 1040.8 ± 1.3 kg/m3 and the mass density (23445 kPa) was 1040.8 ± 1.3 kg/m3. For the same compound, the mass density (23487 kPa) was 1041 ± 1.3 kg/m3, the mass density (23528 kPa) was 1040.9 ± 1.3 kg/m3 and the mass density (23578 kPa) was 1041 ± 1.3 kg/m3. The mass density (23620 kPa) was 1041 ± 1.3 kg/m3, the mass density (23662 kPa) was 1041.1 ± 1.3 kg/m3 and the mass density (23705 kPa) was 1041 ± 1.3 kg/m3. It also gave a mass density (23756 kPa) of 1041.1 ± 1.3 kg/m3, a mass density (23800 kPa) of 1041.1 ± 1.3 kg/m3 and a mass density (24059 kPa) of 1041.3 ± 1.3 kg/m3. It also gave a mass density (24170 kPa) of 1041.4 ± 1.3 kg/m3, a mass density (24213 kPa) of 1041.4 ± 1.3 kg/m3 and a mass density (24248 kPa) of 1041.5 ± 1.3 kg/m3. The mass density (24441 kPa) was 1041.6 ± 1.3 kg/m3, the mass density (24478 kPa) was 1041.6 ± 1.3 kg/m3 and the mass density (24516 kPa) was 1041.6 ± 1.3 kg/m3. For the same compound, the mass density (24554 kPa) was 1041.6 ± 1.3 kg/m3, the mass density (24598 kPa) was 1041.7 ± 1.3 kg/m3 and the mass density (24634 kPa) was 1041.6 ± 1.3 kg/m3. It also gave a mass density (24671 kPa) of 1041.6 ± 1.3 kg/m3, a mass density (24708 kPa) of 1041.8 ± 1.3 kg/m3 and a mass density (24752 kPa) of 1041.8 ± 1.3 kg/m3. For the same compound, the mass density (24955 kPa) was 1041.8 ± 1.3 kg/m3, the mass density (24993 kPa) was 1041.9 ± 1.3 kg/m3 and the mass density (25031 kPa) was 1041.9 ± 1.3 kg/m3. It also gave a mass density (25070 kPa) of 1041.9 ± 1.3 kg/m3, a mass density (25108 kPa) of 1041.9 ± 1.3 kg/m3 and a mass density (25155 kPa) of 1042.1 ± 1.3 kg/m3. For the same compound, the mass density (25193 kPa) was 1042 ± 1.3 kg/m3, the mass density (25232 kPa) was 1042 ± 1.3 kg/m3 and the mass density (25278 kPa) was 1042 ± 1.3 kg/m3. For the same compound, the mass density (25825 kPa) was 1042.4 ± 1.3 kg/m3, the mass density (25865 kPa) was 1042.5 ± 1.3 kg/m3 and the mass density (25913 kPa) was 1042.5 ± 1.3 kg/m3. It also gave a mass density (25954 kPa) of 1042.5 ± 1.3 kg/m3, a mass density (25996 kPa) of 1042.5 ± 1.3 kg/m3 and a mass density (26045 kPa) of 1042.6 ± 1.3 kg/m3. For the same compound, the mass density (26086 kPa) was 1042.6 ± 1.3 kg/m3, the mass density (26129 kPa) was 1042.6 ± 1.3 kg/m3 and the mass density (26170 kPa) was 1042.7 ± 1.3 kg/m3. It also gave a mass density (26220 kPa) of 1042.7 ± 1.3 kg/m3, a mass density (26262 kPa) of 1042.7 ± 1.3 kg/m3 and a mass density (26305 kPa) of 1042.7 ± 1.3 kg/m3. For the same compound, the mass density (26355 kPa) was 1042.7 ± 1.3 kg/m3, the mass density (26397 kPa) was 1042.8 ± 1.3 kg/m3 and the mass density (26448 kPa) was 1042.8 ± 1.3 kg/m3. It also gave a mass density (26490 kPa) of 1042.8 ± 1.3 kg/m3 and a mass density (26533 kPa) of 1042.9 ± 1.3 kg/m3.
